Measurements published in paper PMC5963591, “Bitopic Binding Mode of an M1 Muscarinic Acetylcholine Receptor Agonist Associated with Adverse Clinical Trial Outcomes” (Molecular Pharmacology, 2018).

Key:
[1] = Mouse pharmacokinetics, unbound plasma and brain concentrations; type: in vivo; conditions: mice, 30 minutes after i.p. administration
Experimental: Pharmacokinetic analyses were conducted as previously described ([Witkin et al., 2017]). Compounds were administered via intraperitoneal injection (in 5% glucose) 30 minutes prior to blood collection. Mice were anesthetized with 3% isoflurane (2 l/min), and blood was collected by cardiac puncture of the left ventricle. Blood was immediately transferred to EDTA tubes and centrifuged at 1000g for 10 minutes at 4°C; the supernatant was collected and frozen. Brains from each mouse were also dissected and snap-frozen on dry ice.
Brain samples were homogenized in three volumes of methanol/water [1:4 (v/v)] by weight. A 25-μl aliquot of each study sample, calibration standard, and control sample was added to a 96-well plate and mixed with 180 μl acetonitrile/methanol [1:1 (v/v)] containing internal standard. The samples were subsequently centrifuged, and the resulting supernatants were diluted 12.5-fold with methanol/water [1:1 (v/v)] prior to analyzing 10-μl aliquots by liquid chromatography–tandem mass spectrometry as previously described ([Bradley et al., 2017]).

[2] = target: T1, M3 mAChR (isolated rat ileum) (Rattus norvegicus, UniProt P08483); experiment: Isolated rat ileum contraction; conditions: single experiment
T1 construct: from tissue; host or cells: ileum of adult Wistar rats
T1 sequence (P08483 whole entry): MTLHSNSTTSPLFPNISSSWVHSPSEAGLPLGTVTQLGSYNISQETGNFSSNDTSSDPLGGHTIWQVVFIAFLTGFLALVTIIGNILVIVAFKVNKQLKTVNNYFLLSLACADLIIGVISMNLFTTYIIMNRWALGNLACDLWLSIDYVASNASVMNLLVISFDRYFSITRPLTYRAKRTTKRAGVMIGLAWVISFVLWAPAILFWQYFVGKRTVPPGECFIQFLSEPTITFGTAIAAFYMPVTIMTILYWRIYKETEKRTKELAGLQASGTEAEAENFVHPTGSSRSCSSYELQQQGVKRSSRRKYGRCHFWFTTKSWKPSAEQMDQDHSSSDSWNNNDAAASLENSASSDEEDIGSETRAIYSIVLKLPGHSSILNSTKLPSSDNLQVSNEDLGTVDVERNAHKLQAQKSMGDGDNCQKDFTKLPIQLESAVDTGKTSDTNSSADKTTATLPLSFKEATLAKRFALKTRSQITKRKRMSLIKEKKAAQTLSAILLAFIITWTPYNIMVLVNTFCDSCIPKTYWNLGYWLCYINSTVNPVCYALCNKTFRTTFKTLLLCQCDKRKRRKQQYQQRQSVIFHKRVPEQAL
Experimental: Adult Wistar rats were humanely euthanized and the left atria and the ileum were placed in an organ bath containing oxygenated Tyrode solution. Measurement of negative inotropic responses in atria or contraction of ileum was performed as described by [Lambrecht et al. (1989)]. For atrial responses, ligands were administered for 5 minutes at 32°C in McEwen’s buffer (pH 7.4) in a bath volume of 10 ml. […] For rat ileum experiments, ligands were administered for 5 minutes at 32°C in Krebs’ buffer (pH 7.4) in a bath volume of 10 ml. Contraction of ileum as a percentage of methacholine-induced contraction was measured, and antagonistic effects were measured by inhibition of methacholine-induced responses.

humanized M1 DREADD = target: T2, humanized M1 DREADD (Homo sapiens, UniProt P11229, A196G/Y106C); experiment: IP1 accumulation and ERK1/2 phosphorylation at M1 DREADD, CHO Flp-In cells; type: cell-based
T2 construct: expressed in transfected cells; host or cells: CHO Flp-In
T2 sequence (P11229 whole entry Y106C/A196G): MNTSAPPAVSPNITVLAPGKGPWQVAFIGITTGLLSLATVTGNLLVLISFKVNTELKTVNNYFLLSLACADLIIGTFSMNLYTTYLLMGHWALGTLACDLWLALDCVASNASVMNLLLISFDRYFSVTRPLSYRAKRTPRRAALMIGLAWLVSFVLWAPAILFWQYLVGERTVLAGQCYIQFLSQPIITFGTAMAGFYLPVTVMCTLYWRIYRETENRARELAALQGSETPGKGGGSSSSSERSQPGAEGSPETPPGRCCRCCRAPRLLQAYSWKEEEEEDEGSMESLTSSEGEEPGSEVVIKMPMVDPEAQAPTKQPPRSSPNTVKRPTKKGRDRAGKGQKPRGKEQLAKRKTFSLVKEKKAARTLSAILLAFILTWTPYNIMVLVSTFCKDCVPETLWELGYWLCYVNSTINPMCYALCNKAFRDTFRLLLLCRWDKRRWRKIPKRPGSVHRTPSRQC

human M1 mAChR [3] = target: T3, human M1 mAChR (Homo sapiens, UniProt P11229); experiment: IP1 accumulation after receptor alkylation with phenoxybenzamine (functional interaction with ACh)
T3 sequence (P11229 1-460): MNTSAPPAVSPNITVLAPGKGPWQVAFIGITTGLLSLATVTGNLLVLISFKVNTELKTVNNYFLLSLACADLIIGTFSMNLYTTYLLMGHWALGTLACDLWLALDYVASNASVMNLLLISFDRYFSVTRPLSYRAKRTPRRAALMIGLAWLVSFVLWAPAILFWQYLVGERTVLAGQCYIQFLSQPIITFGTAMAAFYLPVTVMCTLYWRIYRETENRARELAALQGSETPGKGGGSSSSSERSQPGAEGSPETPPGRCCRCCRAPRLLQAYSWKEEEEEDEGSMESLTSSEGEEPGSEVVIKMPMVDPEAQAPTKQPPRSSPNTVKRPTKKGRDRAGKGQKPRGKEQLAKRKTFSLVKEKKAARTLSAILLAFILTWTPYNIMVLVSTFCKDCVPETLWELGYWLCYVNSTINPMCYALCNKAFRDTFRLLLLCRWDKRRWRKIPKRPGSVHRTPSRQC

human mAChR M2 = target: T4, human mAChR M2 (Homo sapiens, UniProt P08172); experiment: [3H]-NMS competition binding, CHO membranes, M2
T4 construct: purchased PerkinElmer; host or cells: CHO
T4 sequence (P08172 whole entry): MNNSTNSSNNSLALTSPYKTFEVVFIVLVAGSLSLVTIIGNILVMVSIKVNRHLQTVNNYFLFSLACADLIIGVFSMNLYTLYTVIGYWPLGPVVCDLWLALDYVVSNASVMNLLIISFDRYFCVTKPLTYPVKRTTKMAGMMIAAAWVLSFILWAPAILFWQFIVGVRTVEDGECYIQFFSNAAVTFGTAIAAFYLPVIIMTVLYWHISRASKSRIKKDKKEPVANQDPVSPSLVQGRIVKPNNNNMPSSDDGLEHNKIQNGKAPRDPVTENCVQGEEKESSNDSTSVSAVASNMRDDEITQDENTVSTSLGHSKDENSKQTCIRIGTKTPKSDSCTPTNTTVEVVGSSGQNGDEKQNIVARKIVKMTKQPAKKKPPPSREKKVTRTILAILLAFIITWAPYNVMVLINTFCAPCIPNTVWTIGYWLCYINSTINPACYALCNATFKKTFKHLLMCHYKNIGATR
Experimental: (§1) For competition binding experiments at M1, M2, M3, M4, and M5 mAChRs, CHO membranes were purchased from PerkinElmer. All experiments were performed in assay buffer of the following composition: 20 mM HEPES, 100 mM NaCl, and 10 mM MgCl2, pH 7.5, and used 10 µg protein/well in a total assay volume of 1 ml using deep well blocks. […] All assay incubations were initiated by the addition of membrane suspensions and deep well blocks were shaken for 5 minutes to ensure complete mixing. Incubation was then carried out for 2 hours at 21°C. Binding reactions were terminated by rapid filtration through GF/A filters (PerkinElmer) presoaked with 0.5% (w/v) polyethylenimine for 1 hour. Filters were then washed three times with 1 ml ice-cold assay buffer.
(§2) Inhibition binding data were curve-fit using GraphPad Prism 6 to derive the potency (IC50) of the test compound. The equilibrium dissociation constant (KI) of the test compound was then calculated with the Cheng–Prusoff equation: KI = IC50/[1 + ([L]/KD)] using the KD value derived separately from saturation binding studies.

C57Bl/6J mice = experiment: Contextual fear conditioning, scopolamine-induced deficit; type: in vivo, mouse; conditions: escalating i.p. doses with scopolamine […]
Experimental: C57Bl/6J male mice (aged 8–12 weeks) were acclimatized to the behavioral testing suite at least 2 hours prior to the test. […] Mice were placed in the conditioning chamber (ANY-maze Fear Conditioning System; Stoelting, Dublin, Ireland); after a 2-minute adaptation period, they received three tone/foot shock pairings where the foot shock (unconditioned stimulus; 2 seconds; 0.4 mA) always co-terminated with a tone (conditioned stimulus; 2.8 kH; 85 dB; 30 seconds). The conditioned stimulus–unconditioned stimulus pairings were separated by 1-minute intervals. After the mice completed training, they remained in the conditioning chamber for 1 minute and were then returned to their home cages. The next day, the mice were placed back in the conditioning chamber, and time spent immobile was recorded for 3 minutes to assess context-dependent learning. Data were analyzed using ANY-maze software (Stoelting).

M3 mAChR = target: T5, M3 mAChR (Homo sapiens, UniProt P20309); experiment: ERK1/2 phosphorylation, CHO cells, M3; type: cell-based
T5 construct: expressed in transfected cells; host or cells: CHO
T5 sequence (P20309 whole entry): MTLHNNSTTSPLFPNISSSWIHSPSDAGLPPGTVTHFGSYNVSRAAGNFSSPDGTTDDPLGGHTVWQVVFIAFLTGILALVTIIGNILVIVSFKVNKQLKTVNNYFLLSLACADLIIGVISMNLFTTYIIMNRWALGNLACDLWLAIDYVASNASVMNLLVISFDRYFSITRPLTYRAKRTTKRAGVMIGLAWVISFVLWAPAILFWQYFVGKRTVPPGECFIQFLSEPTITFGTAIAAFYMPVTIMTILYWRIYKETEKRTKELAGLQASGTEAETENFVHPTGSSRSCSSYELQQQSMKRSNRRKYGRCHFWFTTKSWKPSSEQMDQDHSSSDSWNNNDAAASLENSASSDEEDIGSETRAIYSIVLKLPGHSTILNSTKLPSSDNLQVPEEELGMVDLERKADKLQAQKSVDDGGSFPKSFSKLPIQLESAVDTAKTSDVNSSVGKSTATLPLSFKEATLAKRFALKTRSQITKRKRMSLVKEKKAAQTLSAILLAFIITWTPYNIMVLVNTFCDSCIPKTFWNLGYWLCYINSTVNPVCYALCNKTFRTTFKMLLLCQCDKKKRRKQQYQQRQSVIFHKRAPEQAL

wild-type M1 mAChR = target: T6, wild-type M1 mAChR (Homo sapiens, UniProt P11229); experiment: Receptor phosphorylation at serine 228, M1 wild type, CHO Flp-In cells; type: cell-based
T6 construct: HA; expressed in transfected cells; host or cells: CHO Flp-In

human mAChR M1 = target: T7, human mAChR M1 (Homo sapiens, UniProt P11229); experiment: [3H]-NMS competition binding, CHO membranes, M1
T7 construct: purchased PerkinElmer; host or cells: CHO
Experimental: as §1, §2

human M1 mAChR [4] = target: T3, human M1 mAChR; experiment: [3H]-NMS binding interaction studies with BQCA; parameters: expressed in transfected cells; host or cells: CHO Flp-In; conditions: increasing concentrations of BQCA
Experimental: Prior to the experiment, cells were washed with 100 μl phosphate-buffered saline. […] Binding was terminated by rapid aspiration followed by two washes with 200 μl ice-cold 0.9% NaCl. Bound radioactivity was determined by liquid scintillation (Ultima Gold; PerkinElmer, Boston, MA) counting. Nonspecific binding was determined in the presence of 10 μM atropine.

In the case of `Cc1cc(F)c2[nH]c(=O)n(C3CCN(C4CCOCC4)CC3)c2c1` [GSK1034702, 7-fluoro-5-methyl-3-[1-(oxan-4-yl)piperidin-4-yl]-1H-benzimidazol-2-one], the “free brain concentration versus dose” value [1] is reported as “increase linearly with escalating doses”, the EC50 [2] is reported as 7 µM and the “rat ileum contraction, % of maximal methacholine-induced contraction” value [2] is reported as “approximately 50%”. For the same compound, the IC50 ([2]; read-out: IC50, inhibition of methacholine-induced contraction of rat ileum) was 46 µM, the “potency and efficacy at the M1 DREADD compared with the wild-type receptor” value (humanized M1 DREADD) was “comparable potency and efficacy” and the Kb (human M1 mAChR [3]) was 0.631 µM. For the same compound, the “agonist effect in IP1 accumulation after phenoxybenzamine” value (human M1 mAChR [3]; cells treated with 3 μM phenoxybenzamine) was “no agonist effect”, the Ki (human mAChR M2) was 3.98 µM and the “shape of the dose response on learning and memory” value (C57Bl/6J mice) was “bell shaped”. The “functional activity in ERK1/2 phosphorylation” value (M3 mAChR) was “devoid of activity”, the pSer228 immunoreactivity (wild-type M1 mAChR) was “concentration-dependent increase” and the Ki (human mAChR M1) was 1 µM. The “modulation by BQCA of the displacement of [^3H]-NMS” value (human M1 mAChR [4]) was “not modulated”.
